The values that follow come from publication PMC4536076, “Chemical Library Screening and Structure-Function Relationship Studies Identify Bisacodyl as a Potent and Selective Cytotoxic Agent Towards Quiescent Human Glioblastoma Tumor Stem-Like Cells” (PLoS ONE, 2015).

Structures can show the parent of a compound that is named as a salt. Where two headings read alike, the source gives them in different places.

The subject of one experiment is proliferating TG16 GSCs. The experiment is described as follows: ATP-Glo dose-response, proliferating TG16 GSCs. Type of experiment: cell-based, human. To be noted: Homo sapiens; ATP Glo readout, 24 h treatment; read-out: P TG16 GSCs EC50. How it is done: (§1) The EC50 value was determined for each compound by fitting the data points according to the following equation: y=Smax+Smin*(x*1/EC50)^n/1+(x*1/EC50)^n where y represents the expected response, x is the chemical compound concentration, S max and S min are the maximum and minimum responses recorded, respectively and n is the Hill coefficient. Curve fitting was performed using Microsoft Excel Solver component.
(§2) Similar dose response curves were performed using GSCs isolated from GBM of two other patients (TG16 and OB1 GSCs) grown under proliferating and quiescent conditions.

The subject of experiment [1] is quiescent TG1 GSCs. The following applies: primary screen, 50 μM, 24 h. How it is done:
(§3) Proliferating or quiescent TG1 GSCs were seeded (30 000 and 40 000 viable cells/well, respectively) into 96-well opaque bottom plates (Greiner) with the Biomek FX robot (Beckman Coulter). Each compound from the Prestwick Library was then added (final concentration: 50 μM; 1% DMSO). Each molecule was tested once. Negative control wells (12/96 per assay plate) contained cells treated with 1% DMSO (final concentration) and positive control wells (4/96 per assay plate) contained cells treated with the fungal toxin ophiobolin A (Sigma Aldrich) at 50 μM with 1% DMSO. […] Luminescence in each well was measured with the Victor3 plate reader (PerkinElmer).
(§4) Relative ATP levels in each well were determined by calculating the percentage of luminescent signal in the well with respect to the average signal measured in negative control wells.
(§5) Primary screen hits were further tested in duplicate, at two concentrations (50 and 5 μM) on proliferating and quiescent TG1 GSCs. Cell plating and treatment with compounds were as for the primary screen. Hit selection/confirmation criteria for quiescent cells were as described above.

Experiment [2] relates to primary astrocytes (HA cells). Description: ATP-Glo dose-response, primary astrocytes. It is filed as cell-based, human. The following applies: Homo sapiens, Astrocyte; ATP Glo readout, 24 h treatment.
The subject of a further experiment is HEK 293 cells. The experiment is described as follows: ATP-Glo dose-response, HEK 293 cells. Type of experiment: cell-based, human. To be noted: Homo sapiens, HEK293; ATP Glo readout, 24 h treatment. The procedure: The EC50 value was determined for each compound by fitting the data points according to the following equation: y=Smax+Smin*(x*1/EC50)^n/1+(x*1/EC50)^n where y represents the expected response, x is the chemical compound concentration, S max and S min are the maximum and minimum responses recorded, respectively and n is the Hill coefficient. Curve fitting was performed using Microsoft Excel Solver component. […]

Experiment [3] relates to fetal neural stem cells (f-NSC). The experiment is described as follows: ATP-Glo dose-response, fetal neural stem cells. Type of experiment: cell-based. The following applies: Homo sapiens, Neural stem cell; ATP Glo readout, 24 h treatment.
Experiment [4] deals with proliferating TG1 GSCs. The experiment is described as follows: ATP-Glo dose-response, proliferating TG1 GSCs. The following applies: 24 h. Type of experiment: cell-based, human. How it is done: as §1
(§6) Proliferating or quiescent TG1 cells were seeded in 50 μL of their respective media (30 000 and 40 000 viable cells/well, respectively) into 96-well opaque bottom plates (Greiner, Courtaboeuf, France). Compound treatment was performed by adding 50 μL of compound solutions (in the presence of 2% DMSO in culture medium). […] All compounds were tested in triplicate in each experiment. Independent experiments were performed at least twice for almost all of the compounds.

The next experiment deals with quiescent TG16 GSCs. The experiment is described as follows: ATP-Glo dose-response, quiescent TG16 GSCs. It is filed as cell-based, human. To be noted: Homo sapiens; ATP Glo readout, 24 h treatment; read-out: Q TG16 GSCs EC50. How it is done: as §1, §2
The subject of the next experiment is proliferating OB1 GSCs. Description: ATP-Glo dose-response, proliferating OB1 GSCs. To be noted: Homo sapiens; ATP Glo readout, 24 h treatment; read-out: P OB1 GSCs EC50. Type of experiment: cell-based. The procedure:
as §1, §2

The subject of the next experiment is quiescent OB1 GSCs. Description: ATP-Glo dose-response, quiescent OB1 GSCs. Type of experiment: cell-based, human. The following applies: Homo sapiens; ATP Glo readout, 24 h treatment; read-out: Q OB1 GSCs EC50. How it is done: as §1, §2
Experiment [5] concerns quiescent TG1 GSCs. Description: ATP-Glo dose-response, quiescent TG1 GSCs. Type of experiment: cell-based, human. The procedure:
as §1, §6

Experiment [6] concerns proliferating TG1 GSCs. To be noted: primary screen, 50 μM, 24 h. How it is done:
as §3, §4, §5

Where [7] appears, read: Homo sapiens, ATP Glo readout, 24 h treatment, n = 3, read-out: P TG1 GSCs EC50.
[8] abbreviates: Homo sapiens, 24 h, ATP Glo readout, 24 h treatment, n = 3, read-out: Q TG1 GSCs EC50.
[9] abbreviates: Homo sapiens, SAR study, ATP-Glo cell survival assay, triplicate, read-out: Proliferating TG1 GSCs EC50.
Setting [10] is: Homo sapiens, 24 h, SAR study, ATP-Glo cell survival assay, 24 h, triplicate, read-out: Quiescent TG1 GSCs EC50.
Setting [11] is: SAR study, ATP-Glo cell survival assay, triplicate.

As to `O=c1cc(-c2ccc(O)c(O)c2)oc2cc(O)cc(O)c12` [Luteolin, 3',4',5,7-tetrahydroxy-flavone], the EC50 is greater than 100 µM in the experiment on proliferating TG16 GSCs; greater than 100 µM in [2]; greater than 100 µM with HEK 293 cells; 70 ± 36 µM in experiment [3]; greater than 100 µM in the experiment on proliferating TG1 GSCs [4] (setting [7]); 34 ± 4 µM with quiescent TG16 GSCs. Also, the EC50 with proliferating OB1 GSCs was greater than 100 µM; with quiescent OB1 GSCs, 18 ± 4 µM; in the experiment with quiescent TG1 GSCs [5] (setting [8]), 20 ± 2 µM. For the same molecule, the “Activity on quiescent TG1 GSCs (hit compounds reducing ATP levels)” value in the experiment on quiescent TG1 GSCs [1] was “yes”.
As for `C=C(CC)C(=O)c1ccc(OCC(=O)O)c(Cl)c1Cl` [Ethacrynic acid], the concentration giving a half-maximal response (EC50) is greater than 100 µM in the experiment on proliferating TG16 GSCs; greater than 100 µM in experiment [2]; greater than 100 µM in the experiment on HEK 293 cells; 21 ± 11 µM in experiment [3]; 81 ± 11 µM with proliferating TG1 GSCs [4] (setting [7]); 12 ± 2 µM with quiescent TG16 GSCs. The figures for the EC50 in the experiment on proliferating OB1 GSCs, in the experiment on quiescent OB1 GSCs and in the experiment on quiescent TG1 GSCs [5] (setting [8]) were 60 ± 20 µM, 24 ± 3 µM and 41 ± 11 µM, respectively. Further, the “Activity on quiescent TG1 GSCs (hit compounds reducing ATP levels)” value in the experiment with quiescent TG1 GSCs [1] is recorded as “yes”.
Regarding `OCCN1CCN(CC/C=C2/c3ccccc3Sc3ccc(Cl)cc32)CC1` [Zuclopenthixol hydrochloride], the EC50 with proliferating TG16 GSCs was found to be 29 ± 5 µM; in experiment [2], 12 ± 1 µM; with HEK 293 cells, 29 ± 1 µM; in [3] it was 13 ± 1 µM; with proliferating TG1 GSCs [4] (setting [7]) it was 20 ± 3 µM; in the experiment with quiescent TG16 GSCs, 48 ± 18 µM. Further, the EC50 in the experiment with proliferating OB1 GSCs was 27 ± 9 µM; with quiescent OB1 GSCs it was greater than 100 µM; in the experiment with quiescent TG1 GSCs [5] (setting [8]) it was 52 ± 3 µM. The “Activity on proliferating TG1 GSCs (hit compounds reducing ATP levels)” value with proliferating TG1 GSCs [6] is on record as “yes”.
For `Oc1ccc(C(c2ccccc2)c2ccc(O)cc2)cc1` [Compound 12, 4,4’-dihydroxyphenyl-phenyl-methane], the EC50 worked out at 60.8 ± 10.4 µM in the experiment with proliferating TG1 GSCs [4] (setting [9]) and 14.2 ± 8.8 µM with quiescent TG1 GSCs [5] (setting [10]). Moreover, the “fold increase in EC50 (activity decrease) compared to DDPM (compound 2)” value in the experiment on quiescent TG1 GSCs [5] (quiescent TG1 GSCs) is “at least 10 fold”.
As for `Oc1ccc(C(c2ccc(O)cc2)c2ccccn2)cc1` [Compound 2, 4,4'-dihydroxydiphenyl(pyridine-2-yl)methane], the EC50 in the experiment on proliferating TG1 GSCs [4] (setting [9]) was greater than 100 µM; in the experiment with quiescent TG1 GSCs [5] (setting [10]), 1 ± 0.5 µM.
Take `COc1ccc(C(c2ccc(OC)cc2)c2ccccn2)cc1` [Compound 4, 4,4'-dimethoxydiphenyl(pyridin-2-yl)methane]: in the experiment with proliferating TG1 GSCs [4] (setting [11]), the “Proliferating TG1 GSCs EC50” value was “No activity”. For the same molecule, the “Quiescent TG1 GSCs EC50” value in the experiment on quiescent TG1 GSCs [5] (SAR study, ATP-Glo cell survival assay, 24 h, triplicate) is “No activity”.
Consider `CC(NCCC(c1ccccc1)c1ccccc1)c1ccccc1` (stereo not drawn) [Fendiline hydrochloride], for which the EC50 with proliferating TG16 GSCs worked out at 42 ± 1 µM; in experiment [2], 42 ± 8 µM; in the experiment with HEK 293 cells it was 34 ± 9 µM; in experiment [3], 11 ± 1 µM; in the experiment on proliferating TG1 GSCs [4] (setting [7]), 22 ± 1 µM; with quiescent TG16 GSCs, 45 ± 16 µM. Further, the EC50 in the experiment on proliferating OB1 GSCs worked out at 40 ± 13 µM; with quiescent OB1 GSCs, 48 ± 9 µM; with quiescent TG1 GSCs [5] (setting [8]) it was 32 ± 1 µM. In addition, the “Activity on quiescent TG1 GSCs (hit compounds reducing ATP levels)” value in the experiment with quiescent TG1 GSCs [1] is “yes”.
For “4-hydroxyphenyl-4-trifluoromethylphenyl-2-pyrimidyl-methane [Compound 11]”, the EC50 in the experiment on proliferating TG1 GSCs [4] (SAR study, ATP-Glo cell survival assay, triplicate, read-out: Proliferating TG1 GSCs EC50) is greater than 100 µM; with quiescent TG1 GSCs [5] (SAR study, ATP-Glo cell survival assay, 24 h, triplicate, read-out: Quiescent TG1 GSCs EC50), 12.4 ± 6.9 µM.
For the molecule `CC(=O)Oc1ccc(C(c2ccc(O)cc2)c2ccccn2)cc1` (stereo not drawn) [Compound 3, 4-((4-hydroxyphenyl)(pyridin-2-yl)methyl)phenyl acetate], the 50% effective concentration (EC50) in the experiment on proliferating TG1 GSCs [4] (setting [9]) was greater than 100 µM; in the experiment with quiescent TG1 GSCs [5] (setting [10]) it was 1 ± 0.5 µM.
On to `CC(=O)[C@H]1CC[C@H]2[C@@H]3CCC4=CC(=O)CC[C@]4(C)[C@H]3CC[C@]12C` [Progesterone], for which the EC50 in the experiment on proliferating TG16 GSCs is 75 ± 6 µM; in experiment [2] it was greater than 100 µM; with HEK 293 cells, 36 ± 10 µM; in [3], greater than 100 µM; in the experiment with proliferating TG1 GSCs [4] (setting [7]), greater than 100 µM; with quiescent TG16 GSCs, 25 ± 9 µM. Besides, the EC50 with proliferating OB1 GSCs was determined as 89 ± 29 µM; with quiescent OB1 GSCs, 23 ± 11 µM; in the experiment on quiescent TG1 GSCs [5] (setting [8]), 25 ± 11 µM. Also, in the experiment on quiescent TG1 GSCs [1], the “Activity on quiescent TG1 GSCs (hit compounds reducing ATP levels)” value was “yes”.
For the molecule `Oc1ccc(C(c2ccc(O)cc2)c2cc(Br)ccn2)cc1` [Compound 18, 4,4'-dihydroxyphenyl-2-(4-bromopyridinyl)-methane], the “Proliferating TG1 GSCs EC50” value in the experiment on proliferating TG1 GSCs [4] (setting [11]) is reported as “No activity”. In addition, in the experiment with quiescent TG1 GSCs [5] (setting [10]), the EC50 was found to be 0.36 ± 0.06 µM.
